Data on one molecule can be found in patent US20190315711A1 (eXIthera Pharmaceuticals, Inc., priority 2016, published 2019).

The target of one data set is human Factor XIa (Homo sapiens, UniProt P03951). As to the kind of experiment: Factor XIa enzyme inhibition assay (dose response, fluorogenic AMC substrate). The format is biochemical. Also on record: Enzyme: Factor XIa. The conditions noted are these: purified enzyme; substrate 50 μM, enzyme 0.25 nM; read-out: hFXIa IC50. The gist of the method: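 Fluorogenic assay in 20 mM Hepes pH 7.4, 150 mM NaCl, 0.02% Tween 20 with 0.25 nM enzyme and 50 μM Glp-Pro-Arg-AMC (final). Fluorescence read every minute for 30 min at 30 °C after serial two-fold compound dilution; IC50 from four-parameter Hill fit of dose-response curves.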

A short description of data set [1]: Aqueous solubility in PBS pH 7.4. The conditions noted are these: phosphate buffered saline, aqueous buffer, kinetic from dmso stock, PBS pH 7.4, room temperature. In kind it is physicochemical. As for the experimental part:
The following procedure was used to determine the aqueous solubility of a test compound in phosphate buffered saline (PBS—NaCl 137 mM, KCl 2.7 mM, Na2HPO4 8.1 mM, KH2PO4 1.5 mM, pH 7.4) in 96-well plate format by HPLC-UV/VIS analysis. The test compound was prepared at 200 μM in PBS from a 10 mM DMSO stock solution. The final DMSO concentration was 2%. The PBS buffer samples were mixed thoroughly followed by incubation at room temperature for 24 h. At the end of the incubation, the PBS buffer samples were centrifuged and supernatants analyzed by HPLC. The aqueous solubility (μM) of the test compound in PBS was determined by comparing the peak area of the principal peak in the calibration standard (200 μM) with the peak area of the corresponding peak in each of the PBS samples. The range of the assay was approximately 0.5 μM to 200 μM. The reference compounds used in each assay were metoprolol, rifampicin, ketoconazole, phenytoin, haloperidol, simvastatin, diethylstilbestrol, and tamoxifen ranking from fully soluble (200 μM) to poorly soluble (<1 μM).

Data set [2] in a line: Plasma protein binding by equilibrium dialysis. Particulars: both sexes, pooled plasma, pH 7.4, human plasma protein binding, read-out: PPB. In kind it is in vitro ADME. As for the experimental part:
The following procedure was used to determine the plasma protein binding of a test compound in pooled plasma from human (mixed gender) via equilibrium dialysis in a 96-well plate format. The dialysate compartment was loaded with phosphate-buffered saline (pH 7.4) and the sample side was loaded with plasma spiked with the test compound at a concentration of 10 μM. After loading, samples were covered and incubated for 4 hours at 37° C. After incubation, each compartment was sampled, diluted with acetonitrile/buffer and centrifuged. The supernatants were analyzed by HPLC-MS/MS. The analyte peak areas obtained from HPLC-MS/MS analysis of each sample were used to calculate protein binding according to the following equation (Equation 4):
where: AREAp=Peak area of analyte in protein matrix; AREAb=Peak area of analyte in buffer. The amount measured in the plasma compartment included both free and bound drug, while that on the buffer side represented free drug only; the differences were used to calculate the percentage plasma protein bound. Three reference compounds were tested in each assay: acebutolol, quinidine and warfarin.
(In general: In equilibrium dialysis free small molecules cross a membrane that holds back macromolecules.)

The nature of data set [3]: Caco-2 cell permeability assay (A-B and B-A). The format is in vitro ADME. The conditions noted are these: human. As for the experimental part:
The following procedure was used to determine the ability of a test compound to cross Caco-2 cells (human intestinal epithelial cells derived from a colorectal adenocarcinoma). The cells were seeded at 1×10^5 cells/cm^2 in 96-well Multiscreen™ plates (Millipore). Permeability assays were performed with the cells at days 21-25 post-seeding. Cells are typically used for 15 consecutive passages in culture.
This assay can be performed in either the apical to basolateral (A−B) or basolateral to apical (B−A) direction. The test compound was prepared at 10 μM in HBSS-MES (pH 6.5) or HBSS-HEPES (pH 7.4) with a final DMSO concentration of 1%. The working solution was then centrifuged and the supernatant added to the donor side. The assay plate was incubated at 37° C. with gentle shaking for 60 min or 40 min for the A−B or B−A assay, respectively. Samples were aliquoted from the donor side at time zero and the end point, and from the receiver side at the end point.
Reference compounds, propranolol (highly permeable), labetalol (moderately permeable), ranitidine (poorly permeable), and colchicine (P-glycoprotein substrate) were included in each assay.
Samples are analyzed by HPLC-MS/MS using selected reaction monitoring. The HPLC system consists of a binary LC pump with autosampler, a C-18 column, and a gradient.
The apparent permeability coefficient (Papp) of the test compound (Equation 2) and its recovery (Equation 3) are calculated as follows: […]
wherein A is the surface area of the cell monolayer (0.11 cm^2), C is concentration of the test compound expressed as peak area, D denotes donor, and R is receiver. “0”, “mid,” and “end” denote time at zero, mid-point, and end of the incubation, respectively. At is the incubation time. V is the volume of the donor or receiver.
This is most likely due to non-specific binding or degradation.
On the technique in general: Caco-2 monolayers are a common model of the intestinal barrier.

Sequence of human Factor XIa (P03951 388-625 limits assumed): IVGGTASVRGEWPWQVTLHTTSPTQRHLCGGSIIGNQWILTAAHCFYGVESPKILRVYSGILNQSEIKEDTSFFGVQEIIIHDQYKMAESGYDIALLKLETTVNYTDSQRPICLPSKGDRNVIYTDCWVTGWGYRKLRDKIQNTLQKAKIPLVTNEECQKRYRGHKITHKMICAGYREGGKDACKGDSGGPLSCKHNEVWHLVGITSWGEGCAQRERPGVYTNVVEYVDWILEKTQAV
Sequence of human Factor XIa (P03951 19-387 partner limits assumed): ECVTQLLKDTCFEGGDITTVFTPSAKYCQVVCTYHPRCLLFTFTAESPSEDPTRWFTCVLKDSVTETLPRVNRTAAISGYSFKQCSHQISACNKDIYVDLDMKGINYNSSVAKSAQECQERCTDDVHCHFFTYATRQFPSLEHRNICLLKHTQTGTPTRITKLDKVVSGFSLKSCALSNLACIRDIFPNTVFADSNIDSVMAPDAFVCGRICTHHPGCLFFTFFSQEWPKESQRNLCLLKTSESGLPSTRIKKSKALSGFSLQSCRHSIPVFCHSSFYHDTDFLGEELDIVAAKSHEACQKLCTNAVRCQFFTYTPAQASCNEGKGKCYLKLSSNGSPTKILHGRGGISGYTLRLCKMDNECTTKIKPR

`CN(C(=O)[C@@H]1[C@@H](Cc2ccnc(N)c2)C(=O)N1C(=O)N[C@@H](C1CCCCC1)C(F)(F)F)c1cc(Cl)cc(Cl)c1` [Compound 23]: the IC50 at human Factor XIa is 10 to 100 nM. The molecule also showed a solubility at 24 h in data set [1] not above 10 µM. The fraction unbound at 4 h, 10 μM in data set [2] is less than 0.05. This molecule showed a Papp A→B at 60 min, 10 μM in data set [3] (A-B direction) not above 10 ×10⁻⁶ cm/s. In addition, in data set [3] (B-A direction), the Papp B→A at 40 min, 10 μM was not above 10 ×10⁻⁶ cm/s.

Broadly, the IC50 is the midpoint of a concentration-inhibition curve. By solubility is commonly meant the dissolved amount per volume that the medium holds. Higher therefore signals much dissolved substance. For orientation: Papp A→B means how fast a substance crosses the layer from the apical side. Higher therefore signals ready permeation. As a reminder, the Papp B→A is the apparent permeability from the basolateral to the apical side of a cell layer.
